Source: patent US20110212027A1, “RADIATIVE HEATING FOR DRUG DELIVERY AND OTHER APPLICATIONS” (priority 2008, published 2011)

Experiment: Release from reservoir devices submerged in PBS
Type: physicochemical
Conditions: physiologically-triggerable membrane
Protocol: The devices were constructed as follows. Two 1 cm diameter disks were punched out of a membrane sheet produced as described above. A 1 cm length of ⅜ inch OD (¼ inch ID) silicone tubing (currently used for catheters) was then cut and a membrane disk was glued to one side of the tube using a LockTite low viscosity quick drying adhesive. (1 inch=2.54 cm) After 30 minutes of drying (under light pressure), the membrane-backed tube was then filled with drug or indicator solution. Sodium fluorescein (100 mg/mL in saline) and bupivacaine (10 mg/mL in saline, as well as bupivacaine powder in a saturated saline solution with solid chunks of drug also added to give a larger drug reservoir for release) were tested. The top membrane was then attached using glue following the same technique as for the bottom membrane and set for 30 minutes under light pressure. […] For flux testing, the devices were submerged in 5 mL of PBS at a specific test temperature, with samples taken at predetermined intervals to track the release kinetics. For the microwave antenna devices, two 0.4 cm […] strips of aluminum foil were glued to the outside of the device, one at the top of the device and the other at the bottom of the device (with a 0.2 mm gap in the center) using the same adhesive.

release of bupivacaine from device into PBS (37° C.): below the minimal effective dose
release of bupivacaine from device into PBS (50° C.): above the minimal effective dose
Structure (SMILES): CCCCN1CCCCC1C(=O)Nc1c(C)cccc1C (centres unmarked) [bupivacaine]
